# Data taken from patent US11053204B2, “Pyrimidinyloxy benzene derivatives as herbicides” (FMC Corporation, priority 2015, dated 2021).
# Tests used:
# Assay type in all cases: in vivo
# [1] = tested on: blackgrass (Alopecurus myosuroides); assay: Test C preemergence, plant response rating; conditions: Preemergence
# Source text: (§1) Seeds of plant species selected from blackgrass (Alopecurus myosuroides), ryegrass, Italian (Italian ryegrass, Lolium multiflorum), wheat (winter wheat, Triticum aestivum), galium (catchweed bedstraw, Galium aparine), corn (Zea mays), crabgrass, large (large crabgrass, Digitaria sanguinalis), foxtail, giant (giant foxtail, Setaria faberii), johnsongrass (Sorghum halepense), lambsquarters (Chenopodium album), morningglory (Ipomoea coccinea), nutsedge, yellow (yellow nutsedge, Cyperus esculentus), pigweed (Amaranthus retroflexus), ragweed (common ragweed, Ambrosia elatior), soybean (Glycine max), barnyardgrass (Echinochloa crus-galli), oilseed rape (Brassica napus), pigweed, palmer (palmer pigweed, Amaranthus palmeri), waterhemp (common waterhemp, Amaranthus rudis), velvetleaf (Abutilon theophrasti), kochia (Kochia scoparia), surinam grass (Brachiaria decumbens), nightshade (eastern black nightshade, Solanum ptycanthum), wild poinsettia (Euphorbia heterophylla), windgrass (Apera spica-venti), and oat, wild (wild oat Avena fatua), were planted into a blend of loam soil and sand or a silt loam soil and treated preemergence with test chemicals formulated in a non-phytotoxic solvent mixture which included a surfactant.
# (§2) At the same time, plants selected from these crop and weed species and also chickweed (common chickweed, Stellaria media), buckwheat, wild (wild buckwheat, Polygonum convolvulus), wild mustard (Sinapis arvensis), field poppy (Papaver rhoeas), field violet (Viola arvensis), geranium, cutleaf (cutleaf geranium, Geranium dissectum), Canada thistle (Cirsium arvense), and speedwell (bird's-eye speedwell, Veronica persica), were planted in pots containing Sunshine Redi-Earth® planting medium comprising spaghnum peat moss, vermiculite, starter nutrients and dolomitic limestone and treated with postemergence applications of test chemicals formulated in the same manner. Plants ranged in height from 2 to 18 cm (1- to 4-leaf stage) for postemergence treatments. Treated plants and controls were maintained in a greenhouse for 13 to 15 d, after which time all species were compared to controls and visually evaluated. Plant response ratings, summarized in Table C, are based on a scale of 0 to 100 where 0 is no effect and 100 is complete control. A dash (-) response means no test result.
# corn (Zea mays) = assay: Test C preemergence, plant response rating; conditions: Preemergence
# Source text: as §1, §2
# [2] = tested on: crabgrass, large (large crabgrass, Digitaria sanguinalis); assay: Test C preemergence, plant response rating; conditions: Preemergence
# Source text: as §1, §2
# [3] = tested on: foxtail, giant (giant foxtail, Setaria faberii); assay: Test C preemergence, plant response rating; conditions: Preemergence
# Source text: as §1, §2
# [4] = tested on: lambsquarters (Chenopodium album); assay: Test C preemergence, plant response rating; conditions: Preemergence
# Source text: as §1, §2
# [5] = tested on: morningglory (Ipomoea coccinea); assay: Test C preemergence, plant response rating; conditions: Preemergence
# Source text: as §1, §2
# [6] = tested on: nutsedge, yellow (yellow nutsedge, Cyperus esculentus); assay: Test C preemergence, plant response rating; conditions: Preemergence
# Source text: as §1, §2
# [7] = tested on: oilseed rape (Brassica napus); assay: Test C preemergence, plant response rating; conditions: Preemergence
# Source text: as §1, §2
# [8] = tested on: ragweed (common ragweed, Ambrosia elatior); assay: Test C preemergence, plant response rating; conditions: Preemergence
# Source text: as §1, §2
# [9] = tested on: ryegrass, Italian (Italian ryegrass, Lolium multiflorum); assay: Test C preemergence, plant response rating; conditions: Preemergence
# Source text: as §1, §2
# soybean (Glycine max) = assay: Test C preemergence, plant response rating; conditions: Preemergence
# Source text: as §1, §2
# [10] = tested on: velvetleaf (Abutilon theophrasti); assay: Test C preemergence, plant response rating; conditions: Preemergence
# Source text: as §1, §2
# [11] = tested on: waterhemp (common waterhemp, Amaranthus rudis); assay: Test C preemergence, plant response rating; conditions: Preemergence
# Source text: as §1, §2
# [12] = tested on: wheat (winter wheat, Triticum aestivum); assay: Test C preemergence, plant response rating; conditions: Preemergence
# Source text: as §1, §2
# [13] = tested on: blackgrass (Alopecurus myosuroides); assay: Test C postemergence, plant response rating; conditions: for Plant response rating, Blackgrass: scale 0 to 100; for Blackgrass plant response rating: scale 0 to 100 (0 no effect, 100 complete control)
# Source text: as §1, §2
# [14] = tested on: foxtail, giant (giant foxtail, Setaria faberii); assay: Test C postemergence, plant response rating; conditions: for Foxtail, Giant plant response rating: scale 0 to 100 (0 no effect, 100 complete control)
# Source text: as §1, §2
# [15] = tested on: morningglory (Ipomoea coccinea); assay: Test C postemergence, plant response rating; conditions: for Morningglory plant response rating: scale 0 to 100 (0 no effect, 100 complete control)
# Source text: as §1, §2
# [16] = tested on: oilseed rape (Brassica napus); assay: Test C postemergence, plant response rating; conditions: for Oilseed Rape plant response rating: scale 0 to 100 (0 no effect, 100 complete control)
# Source text: as §1, §2
# [17] = tested on: velvetleaf (Abutilon theophrasti); assay: Test C postemergence, plant response rating
# Source text: as §1, §2
# [18] = tested on: wheat (winter wheat, Triticum aestivum); assay: Test C postemergence, plant response rating
# Source text: as §1, §2
# [19] = 125 g ai/ha, scale 0 to 100 (0 no effect, 100 complete control)
compound,measurement,setting,value
CCCCC(=O)c1c(Br)cccc1Oc1ncc(Cl)cn1 [Compound 79],"Plant response rating, Blackgrass","[1]; 62 g ai/ha, scale of 0 to 100",75
same,"Plant response rating, Blackgrass","[1]; 125 g ai/ha, scale of 0 to 100",90
same,"Plant response rating, Blackgrass","[1]; 16 g ai/ha, scale 0 to 100",5
same,"Plant response rating, Blackgrass","[1]; 31 g ai/ha, scale 0 to 100",10
same,"Plant response rating, Corn","corn (Zea mays); 62 g ai/ha, scale of 0 to 100",5
same,"Plant response rating, Corn","corn (Zea mays); 125 g ai/ha, scale of 0 to 100",30
same,"Plant response rating, Corn","corn (Zea mays); 16 g ai/ha, scale 0 to 100",0
same,"Plant response rating, Corn","corn (Zea mays); 31 g ai/ha, scale 0 to 100",0
same,"Plant response rating, Crabgrass, Large","[2]; 62 g ai/ha, scale of 0 to 100",100
same,"Plant response rating, Crabgrass, Large","[2]; 125 g ai/ha, scale of 0 to 100",98
same,"Plant response rating, Crabgrass, Large","[2]; 16 g ai/ha, scale 0 to 100",65
same,"Plant response rating, Crabgrass, Large","[2]; 31 g ai/ha, scale 0 to 100",98
same,"Plant response rating, Foxtail, Giant","[3]; 62 g ai/ha, scale of 0 to 100",80
same,"Plant response rating, Foxtail, Giant","[3]; 125 g ai/ha, scale of 0 to 100",98
same,"Plant response rating, Foxtail, Giant","[3]; 16 g ai/ha, scale 0 to 100",40
same,"Plant response rating, Foxtail, Giant","[3]; 31 g ai/ha, scale 0 to 100",70
same,"Plant response rating, Lambsquarters","[4]; 125 g ai/ha, scale of 0 to 100",85
same,"Plant response rating, Lambsquarters","[4]; 16 g ai/ha, scale 0 to 100",0
same,"Plant response rating, Lambsquarters","[4]; 31 g ai/ha, scale 0 to 100",10
same,"Plant response rating, Lambsquarters","[4]; 62 g ai/ha, scale 0 to 100",70
same,"Plant response rating, Morningglory","[5]; 125 g ai/ha, scale of 0 to 100",60
same,"Plant response rating, Morningglory","[5]; 16 g ai/ha, scale 0 to 100",20
same,"Plant response rating, Morningglory","[5]; 31 g ai/ha, scale 0 to 100",10
same,"Plant response rating, Morningglory","[5]; 62 g ai/ha, scale 0 to 100",10
same,"Plant response rating, Nutsedge, Yellow","[6]; 125 g ai/ha, scale of 0 to 100",0
same,"Plant response rating, Nutsedge, Yellow","[6]; 16 g ai/ha, scale 0 to 100",0
same,"Plant response rating, Nutsedge, Yellow","[6]; 31 g ai/ha, scale 0 to 100",0
same,"Plant response rating, Nutsedge, Yellow","[6]; 62 g ai/ha, scale 0 to 100",0
same,"Plant response rating, Oilseed Rape","[7]; 125 g ai/ha, scale of 0 to 100",95
same,"Plant response rating, Oilseed Rape","[7]; 16 g ai/ha, scale 0 to 100",0
same,"Plant response rating, Oilseed Rape","[7]; 31 g ai/ha, scale 0 to 100",0
same,"Plant response rating, Oilseed Rape","[7]; 62 g ai/ha, scale 0 to 100",70
same,"Plant response rating, Ragweed","[8]; 125 g ai/ha, scale of 0 to 100",30
same,"Plant response rating, Ragweed","[8]; 16 g ai/ha, scale 0 to 100",0
same,"Plant response rating, Ragweed","[8]; 31 g ai/ha, scale 0 to 100",0
same,"Plant response rating, Ragweed","[8]; 62 g ai/ha, scale 0 to 100",20
same,"Plant response rating, Ryegrass, Italian","[9]; 125 g ai/ha, scale of 0 to 100",35
same,"Plant response rating, Ryegrass, Italian","[9]; 16 g ai/ha, scale 0 to 100",0
same,"Plant response rating, Ryegrass, Italian","[9]; 31 g ai/ha, scale 0 to 100",10
same,"Plant response rating, Ryegrass, Italian","[9]; 62 g ai/ha, scale 0 to 100",30
same,"Plant response rating, Soybean","soybean (Glycine max); 125 g ai/ha, scale of 0 to 100",5
same,"Plant response rating, Soybean","soybean (Glycine max); 16 g ai/ha, scale 0 to 100",0
same,"Plant response rating, Soybean","soybean (Glycine max); 31 g ai/ha, scale 0 to 100",0
same,"Plant response rating, Soybean","soybean (Glycine max); 62 g ai/ha, scale 0 to 100",5
same,"Plant response rating, Velvetleaf","[10]; 125 g ai/ha, scale of 0 to 100",75
same,"Plant response rating, Velvetleaf","[10]; 16 g ai/ha, scale 0 to 100",10
same,"Plant response rating, Velvetleaf","[10]; 31 g ai/ha, scale 0 to 100",5
same,"Plant response rating, Velvetleaf","[10]; 62 g ai/ha, scale 0 to 100",20
same,"Plant response rating, Waterhemp","[11]; 125 g ai/ha, scale of 0 to 100",100
same,"Plant response rating, Waterhemp","[11]; 16 g ai/ha, scale 0 to 100",100
same,"Plant response rating, Waterhemp","[11]; 31 g ai/ha, scale 0 to 100",98
same,"Plant response rating, Waterhemp","[11]; 62 g ai/ha, scale 0 to 100",95
same,"Plant response rating, Wheat","[12]; 125 g ai/ha, scale of 0 to 100",15
same,"Plant response rating, Wheat","[12]; 16 g ai/ha, scale 0 to 100",0
same,"Plant response rating, Wheat","[12]; 31 g ai/ha, scale 0 to 100",5
same,"Plant response rating, Wheat","[12]; 62 g ai/ha, scale 0 to 100",5
same,"Plant response rating, Blackgrass",[13]; 16 g ai/ha,20
same,"Plant response rating, Blackgrass",[13]; 31 g ai/ha,10
same,Blackgrass plant response rating,[13]; 62 g ai/ha,20
same,Blackgrass plant response rating,[13]; 125 g ai/ha,30
same,"Plant response rating, Foxtail, Giant","[14]; 16 g ai/ha, scale of 0 to 100",10
same,"Plant response rating, Foxtail, Giant","[14]; 31 g ai/ha, scale 0 to 100",20
same,"Foxtail, Giant plant response rating",[14]; 62 g ai/ha,25
same,"Foxtail, Giant plant response rating",[14]; 125 g ai/ha,40
same,"Plant response rating, Morningglory","[15]; 16 g ai/ha, scale of 0 to 100",10
same,"Plant response rating, Morningglory","[15]; 31 g ai/ha, scale 0 to 100",20
same,Morningglory plant response rating,[15]; 62 g ai/ha,30
same,Morningglory plant response rating,[15]; 125 g ai/ha,30
same,"Plant response rating, Oilseed Rape","[16]; 16 g ai/ha, scale of 0 to 100",80
same,"Plant response rating, Oilseed Rape","[16]; 31 g ai/ha, scale 0 to 100",98
same,Oilseed Rape plant response rating,[16]; 62 g ai/ha,98
same,Oilseed Rape plant response rating,[16]; 125 g ai/ha,100
same,"Plant response rating, Velvetleaf","[17]; 16 g ai/ha, scale of 0 to 100",30
same,"Plant response rating, Velvetleaf","[17]; 31 g ai/ha, scale 0 to 100",75
same,Velvetleaf plant response rating,[17]; [19],90
same,"Plant response rating, Wheat","[18]; 16 g ai/ha, scale of 0 to 100",5
same,"Plant response rating, Wheat","[18]; 31 g ai/ha, scale 0 to 100",5
same,Wheat plant response rating,[18]; [19],15
